This is an account of results in patent US20020058042A1, “Non-IgA fc binding forms of the Group B streptococcal beta antigens” (priority 1996, published 2002).

No end group written: not given here.

The test system of the assay is binding of human IgA to the purified Cβ protein. Briefly: ELISA inhibition assay: peptides blocking binding of human IgA to purified Cβ protein. The note with it: synthetic peptide added with half-maximal dilution of IgA myeloma protein. On the procedure: Several synthetic peptides were made corresponding to the amino acid sequence contained within this region of the Cβ protein. Peptides were synthesized using NMP t-butoxycarbonyl chemistry on an ABI 430A peptide synthesizer (Applied Biosystems, Foster City, Calif.) and were deprotected. Peptides from a sample of the resin were removed from the resin by treatment with HF in the presence of anisole (0° C./1 h). Preparative purification of these peptides were performed using a C18 column (2.14 ID×30 cm) (Dynamax-Rainin, Woburn, Mass.). The peptides were quantitated by PTC amino acid analysis using Waters Picotag system (Waters, Milford, Mass.). The synthesized peptides eluted from the C18 column as a major peak consisting of usually 75-85% of the total elution profile. The amino acid composition of the purified peptides were in good agreement with the sequence which was used to synthesize the peptides. […] The plates were incubated at 37° C. for 1 h and the absorbance at 405 nm determined using an Elida-5 microtiter plate reader (Physica, New York, N.Y.). […] This was done to obtain a titer of the human IgA myeloma protein which would give a half-maximal reading in the ELISA assay. […] The dilution of the human IgA myeloma protein which gave the half maximal reading was then added. […] The plates were then processed and read as described. The percentage of inhibition would be calculated as follows: […]

As for NHQKSQVEKMAEQKG [SEQ ID NO: 10], the “inhibition of human IgA binding to purified Cβ” value is given as “inhibited”.
